# Experimental data as given in US10251871B2, “Compositions and methods for treatment of edema” (Memorial Sloan Kettering Cancer Center, priority 2015, dated 2019).
# Experiments:
# Assay type in all cases: in vivo, mice
# unwounded mouse ears = assay: Unwounded mouse ears, whole mount imaging of lymphatic vessels; settings: tacrolimus applied to unwounded ears for 4 weeks
# From the text: We also studied lymphangiogenesis during wound healing using an ear punch wound model and applying topical tacrolimus or control ointment for 4 weeks. […] To test the possibility of direct lymphangiogenic effects of tacrolimus, we applied tacrolimus to unwounded mouse ears for 4 weeks, and then performed whole mount confocal imaging of lymphatic vessels. We observed no increase in lymphangiogenesis in this uninjured, non-inflamed setting (FIG. 16).
# [1] = Tacrolimus blood level by mass spectrometry
# Protocol: Blood levels of tacrolimus were measured using mass spectrometry in a modification of a previously reported method. Donaldson et al., Meth. Mol. Biol. 603:479-487 (2010). Briefly, whole blood was collected in sodium EDTA-coated tubes (Terumo, Shibuya, Japan) and then analyzed using a Thermo Scientific Aria TLX-2 turbulent flow chromatograph (TFC) coupled to a TSQ Quantum Ultra triple quadrupole mass spectrometer (Thermo Scientific, Franklin, Mass.). The TurboFlow column used was a Cyclone P-50×0.5 mm while the analytical column was a Hypersil Gold C-18 column, 3×50 mm. To whole blood (50 μL) was added 200 μL of 0.2 mM ZnSO4 containing ascomycin as an internal standard. Following a 30 minute incubation and centrifugation, 50 μL of the supernatant was injected into the TFC system. The analytes were eluted through the column (0.75 mL min^−1) with a gradient of water and methanol solutions containing 10 mM ammonium formate and 0.1% formic acid. The analytical run time was 4.5 minutes. The between-day imprecision of the assay was determined at three concentrations over a period of 10 days. At concentrations of 3.3, 12.6 and 31.9 ng mL^−1 the coefficients of variation were of 9.8, 7.0 and 7.8%, respectively. The assay has a linear range from 0 to 40 ng mL^−1.
# [2] = tested on: ear skin lymphatic vessels (LYVE-1+); assay: Ear punch wound model of cutaneous lymphangiogenesis; settings: topical tacrolimus for 4 weeks, vs control ointment
# From the text: We also studied lymphangiogenesis during wound healing using an ear punch wound model and applying topical tacrolimus or control ointment for 4 weeks. […] To test the possibility of direct lymphangiogenic effects of tacrolimus, we applied tacrolimus to unwounded mouse ears for 4 weeks, and then performed whole mount confocal imaging of lymphatic vessels. We observed no increase in lymphangiogenesis in this uninjured, non-inflamed setting (FIG. 16). […] A corneal lymphangiogenesis assay was performed as previously reported. Cursiefen et al., Cornea 25:443-447 (2006). Briefly, 10-0 nylon sutures (Ethicon, Cincinnati, Ohio) were placed in the cornea at […]. Beginning immediately after suture placement, animals were treated with systemic tacrolimus or vehicle control daily for two weeks, followed by analysis using confocal microscopy (Leica Microsystems, Weitziar, Germany). […] Cutaneous lymphangiogenesis was assessed using an ear punch wound model as previously reported. […] Tile-scan images were obtained using a confocal microscope (Leica Microsystems, Weitziar, Germany) and skin within 400 μm of the wound edge was analyzed using Metamorph software (Molecular Devices, Sunnyvale, Calif.). Standardized (200 μm×200 μm) fields were analyzed for the number of branch points present per unit area by two blinded reviewers.
structure (smiles),measurement,setting,value
C=CC[C@@H]1/C=C(\C)C[C@H](C)C[C@H](OC)[C@H]2O[C@@](O)(C(=O)C(=O)N3CCCC[C@H]3C(=O)O[C@H](/C(C)=C/[C@@H]3CC[C@@H](O)[C@H](OC)C3)[C@H](C)[C@@H](O)CC1=O)[C@H](C)C[C@@H]2OC [tacrolimus],"lymphangiogenesis in uninjured, non-inflamed ear",unwounded mouse ears,no increase
same,whole blood tacrolimus levels,[1]; systemic tacrolimus 4 mg kg^−1 IP daily,immunosuppressive concentrations
same,"whole blood tacrolimus level (systemic absorption), mean value",[1]; topical tacrolimus,1.06 ng/mL
same,lymphatic vessel branching in ear skin adjacent to the wound,[2],significantly increased
same,lymphatic vessel density in ear skin adjacent to the wound,[2],significantly increased
